Results from patent US7598067B2, “PDEs and uses thereof” (priority 2000, dated 2009).
Values joined by “and” are separate entries in the source; they are usually repeats but may differ in a detail not shown here. Identical values can stand only once. Like-named read-outs stand apart in the source and are kept apart here.

What was measured:
TbPDE2B = TbPDE2B (Trypanosoma brucei, UniProt Q9GQU6); assay: Phosphodiesterase assay, recombinant TbPDE2B expressed in HEK 293 cells; assay type: biochemical; conditions: for inhibition of recombinant TbPDE2B, in words: 1 μM [3H] cAMP, cGMP up to 200 μM
Experimental: Expression of T. brucei PDE. The ORF sequence for T. brucei PDE was subcloned into the pcDNA 3.1-TOPO vector (Invitrogen) according to the manual (Eukaryotic TOPO TA Cloning, version C) and plasmid DNA purified as described above. Human embryonic kidney 293 (HEK 293) cells were transfected with 12 μg of DNA in 60 μl of GenePORTER Transfection Reagent (Gene Therapy Systems, San Diego, Calif.) in 100-mm dishes and kept at 37° C. in 5% CO2 for 24 h. After this period fresh medium was added, and incubated under the same conditions for an additional 24 h. The same amount of pcDNA vector containing the sequence for the Green Fluorescent Protein (GFP) was transfected under identical conditions as a positive control for expression and as a negative control for PDE activity. Two plates were harvested at a time and homogenized with 1 ml of homogenization buffer containing 40 mM Tris-HCl, pH 7.5; 15 mM benzamidine; 15 mM 2-mercaptoethanol; 1 μg/ml pepstatin A; 1 μg/ml leupeptin and 5 mM EDTA. The cell suspension was immediately subjected to sonication (3×5 s) on ice. One volume of glycerol and 1 mg/ml of bovine serum albumin were added immediately to the homogenate.
Phosphodiesterase assay. […]

TbPDE2A [1] = target: T1, TbPDE2A (Trypanosoma brucei, UniProt Q9GTN9); assay: Phosphodiesterase assay, recombinant TbPDE2A in yeast lysates; assay type: biochemical
Experimental: Yeast cell lysis. Yeast cells grown to mid- to end-log phase in SC-leu medium were collected, resuspended quickly in an original volume of prewarmed YPD medium and incubated for an additional 3 h at 30° C. in order to maximize protein expression. Cells were then harvested, washed once in water and once in HBBB buffer (Hank's balanced salt solution, containing 50 mM HEPES, pH 7.5). The washed cell pellet was suspended in an equal volume of HBB containing a protease inhibitor cocktail (Complete™, Roche Molecular Biochemicals). […] The cell lysate was clarified by centrifugation for 15 min at 15,000×g.
Phosphodiesterase Assay. […] […] Incubation was at 30° C. for 20 min. […] The precipitates were filtered through GF-C glass fiber fitters and filters were washed 3 times with ice-cold 1 mM NaOH/100 mM NaCl and were then dried and counted in liquid scintillation fluid (4 g/I omnifluor in toluene). All assays were carried out in triplicates and with three independent enzyme preparations. Controls for the efficiency of precipitation of cAMP and of AMP were always included. When assaying yeast cell extracts, control lysates from the PDE deletion strains transfected with empty vector was used as a background control. […] Inhibitors were dissolved in DMSO or ethanol, and the final concentration of the solvent never exceeded 1% in the assays reaction. Incubation times and enzyme concentrations were always adjusted so that less than 30% of the input substrate was hydrolyzed (2-5 μg total protein/100 μl assay). IC50 values were calculated by curve fitting on a four parameter dose-response model with variable slope, using the Prism software package of Graph Pad Inc., San Diego, Calif.

[2] = tested on: total PDE activity of trypanosomal cell extracts; assay: Total PDE activity in trypanosomal cell extracts; assay type: biochemical, Trypanosoma brucei
Excerpt: Chemical validation of the TbPDE2 family as a potential drug target. One of the novel PDEs of the invention, TbPDE2A, was expressed as a recombinant protein and was characterized in detail (see above). […].

PDE 6 = conditions: read-out: PDE Selectivity (IC50); cited from earlier work
PDE 8 = conditions: read-out: PDE Selectivity (IC50); cited from earlier work
PDE 10 = conditions: read-out: PDE Selectivity (IC50); cited from earlier work
PDE 3 = conditions: read-out: PDE Selectivity (IC50); cited from earlier work
[3] = tested on: PDE8A and PDE7A from hut78 cells; assay: PDE activity of monoQ HPLC fractions of hut78 cells, low Km peak; assay type: biochemical, human; conditions: 0.01 μM cAMP; 10 μM rolipram or 100 μM IBMX
Experimental: (§1) Since pure CD4^+ T cells can only be obtained in limited quantities, a human CD4^+ T cell line, hut78, (ATCC, Manassas, Va.), was used to study the activity of PDE8A. Hut78 cells (2×10^8) were resuspended in 20 mM Tris pH 7.5 buffer containing protease inhibitors (Boehringer Mannheim, Indianapolis, Ind.) and sonicated. The supernatant was removed after centrifugation at 15000×g for 10 minutes and applied to a Mono Q column attached to a Rainin Dynamax HPLC system (Ameryville, Calif.). A NaCl gradient (0-0.8M) was passed through the column and 250 uL fractions were collected. The fractions were assayed for activity using either 1 μM or 0.01 μM cAMP as substrate and the indicated concentration of inhibitor (FIG. 5). Western blot analysis was also performed (10 μL/well) using PDE7A or 8A antibodies.

PDE8A [4] = assay: PDE activity of monoQ HPLC fractions of hut78 cells containing only PDE8A; assay type: biochemical, human; conditions: 0.01 μM cAMP
Experimental: as §1

PDE8A [5] = assay: Activity of immunoprecipitated PDE8A from Hut78 or CD4+ cells; assay type: biochemical, human
Experimental: Hut78 or CD4^+ cells were harvested at various points after stimulation with CD3 and CD28 antibodies. Cells were resuspended in IP buffer (20 mM Tris pH7.5, 100 mM NaCl, 1 mM benzamidine, 1 μg/mL leupeptin, 1 μg/mL pepstatin, 50 mM NaF, 2 mM EDTA) and sonicated. The cells were centrifuged at 15000×g for 10 minutes. The supernatant was precleared for 2 hours with 0.5 μg mouse IgG and 10 μL protein-G agarose (Santa Cruz Biotechnology, Santa Cruz, Calif.). PDE8A monoclonal antibody was preloaded onto 10 μL protein G-agarose and added to the precleared supernatant. The immunoprecipitations were agitated overnight at 4° C. and the beads washed three times with IP buffer containing 1M NaCl followed by one wash with IP buffer.

PDE8A [6] = conditions: Fisher et al. 1998; cited from earlier work
PDEs (Non-selective) = conditions: read-out: PDE Selectivity (IC50); cited from earlier work
human PDE8A [7] = target: T2, human PDE8A (Homo sapiens, UniProt O60658); assay: Activity of sf9 expressed PDE8A, undigested or trypsin digested; assay type: biochemical; parameters: made in house; host or cells: Sf9 insect cells (supernatant of cell extract); conditions: undigested PDE8A
Experimental: (§2) Briefly, human PDE8A was expressed in Sf9 cells (ATCC, Manassas, Va.). […] The supernatant (10^6 cells/digestion) was isolated and digested with the indicated amounts of trypsin at the indicated times at 30° C. The digestion was stopped with a 100-fold excess of soybean trypsin inhibitor. The activity was assayed with 1 μM cAMP. […] The digested PDE8A was analyzed by Western blot analysis using a peptide antibody specific to the C-terminus (PIL13) or the P4G7 monoclonal antibody.
Target sequence in this assay (O60658 285-829): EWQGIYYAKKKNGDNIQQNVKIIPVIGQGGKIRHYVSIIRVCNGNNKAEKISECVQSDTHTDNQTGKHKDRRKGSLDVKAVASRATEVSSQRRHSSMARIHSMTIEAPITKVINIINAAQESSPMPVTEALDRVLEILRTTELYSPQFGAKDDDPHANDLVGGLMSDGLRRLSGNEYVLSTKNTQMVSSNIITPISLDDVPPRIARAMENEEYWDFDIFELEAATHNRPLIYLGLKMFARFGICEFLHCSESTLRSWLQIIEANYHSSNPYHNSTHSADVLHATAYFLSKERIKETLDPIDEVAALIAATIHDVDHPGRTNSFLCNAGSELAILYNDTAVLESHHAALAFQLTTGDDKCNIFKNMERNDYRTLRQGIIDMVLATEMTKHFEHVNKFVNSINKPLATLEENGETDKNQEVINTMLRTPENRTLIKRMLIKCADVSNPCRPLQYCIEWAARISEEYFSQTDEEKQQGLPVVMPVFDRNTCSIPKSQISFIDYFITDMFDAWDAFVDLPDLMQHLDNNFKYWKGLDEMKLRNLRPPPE

human PDE8A [8] = target: T2, human PDE8A; assay: as above; assay type: biochemical; parameters: human PDE8A was expressed in Sf9 cells (ATCC, Manassas, Va.); This PDE8A was already N-terminally truncated at position 285; fused on or other part: N-terminal FLAG tag ([…]...) on the undigested construct; conditions: trypsin digested PDE8A; at 1 μM IBMX
Experimental: as §2
Target sequence in this assay (O60658 whole entry): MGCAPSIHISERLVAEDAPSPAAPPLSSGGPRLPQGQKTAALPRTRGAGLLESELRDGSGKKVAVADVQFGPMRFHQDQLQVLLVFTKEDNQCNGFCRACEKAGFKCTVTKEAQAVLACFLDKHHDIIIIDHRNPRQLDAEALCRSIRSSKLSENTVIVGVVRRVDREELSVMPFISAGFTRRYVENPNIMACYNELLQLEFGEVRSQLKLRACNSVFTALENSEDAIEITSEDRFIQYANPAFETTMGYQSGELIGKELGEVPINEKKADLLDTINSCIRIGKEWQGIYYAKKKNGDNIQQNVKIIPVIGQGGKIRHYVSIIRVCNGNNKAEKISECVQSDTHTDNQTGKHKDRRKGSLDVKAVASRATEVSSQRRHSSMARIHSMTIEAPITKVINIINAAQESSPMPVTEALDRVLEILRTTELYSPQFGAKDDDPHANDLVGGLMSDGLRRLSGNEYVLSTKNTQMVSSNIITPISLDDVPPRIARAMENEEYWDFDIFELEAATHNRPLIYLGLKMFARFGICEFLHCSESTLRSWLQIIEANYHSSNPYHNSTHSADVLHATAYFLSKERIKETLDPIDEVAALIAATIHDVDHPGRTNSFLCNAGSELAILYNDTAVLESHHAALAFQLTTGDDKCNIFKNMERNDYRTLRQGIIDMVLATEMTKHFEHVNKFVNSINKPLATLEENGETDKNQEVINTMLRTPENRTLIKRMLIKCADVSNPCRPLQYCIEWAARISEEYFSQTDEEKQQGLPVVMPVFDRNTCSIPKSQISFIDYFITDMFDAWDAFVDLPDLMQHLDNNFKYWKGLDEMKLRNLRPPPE

TbPDE2C = assay: Recombinant TbPDE2C expressed in S. cerevisiae; assay type: biochemical, Trypanosoma brucei
Excerpt: We also have expressed a second family member, TbPDE2C, as a recombinant protein in the yeast S. cerevisiae and have characterized it was previously done for TbPDE2A.

TbPDE2A [9] = target: T1, TbPDE2A; conditions: Table 2, from reference; cited from earlier work
[10] = full-size TbPDE2A, yeast lysates, 1 μM cAMP

T1 sequence (Q9GTN9 entry or part of it): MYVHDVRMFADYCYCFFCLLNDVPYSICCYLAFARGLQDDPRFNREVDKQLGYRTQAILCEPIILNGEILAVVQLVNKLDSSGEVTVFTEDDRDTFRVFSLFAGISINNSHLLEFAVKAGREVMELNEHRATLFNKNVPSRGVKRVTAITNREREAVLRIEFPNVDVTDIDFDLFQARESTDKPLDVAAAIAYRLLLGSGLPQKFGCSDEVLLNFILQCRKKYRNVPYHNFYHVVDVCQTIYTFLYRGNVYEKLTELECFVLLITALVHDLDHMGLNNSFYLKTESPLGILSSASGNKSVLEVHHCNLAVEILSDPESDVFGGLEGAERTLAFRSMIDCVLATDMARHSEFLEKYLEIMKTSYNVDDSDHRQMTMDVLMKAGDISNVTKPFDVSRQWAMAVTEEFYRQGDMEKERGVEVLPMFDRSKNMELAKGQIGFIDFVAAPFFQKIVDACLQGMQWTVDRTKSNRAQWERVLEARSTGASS
Chain of TbPDE2B (Q9GQU6 entry or part of it): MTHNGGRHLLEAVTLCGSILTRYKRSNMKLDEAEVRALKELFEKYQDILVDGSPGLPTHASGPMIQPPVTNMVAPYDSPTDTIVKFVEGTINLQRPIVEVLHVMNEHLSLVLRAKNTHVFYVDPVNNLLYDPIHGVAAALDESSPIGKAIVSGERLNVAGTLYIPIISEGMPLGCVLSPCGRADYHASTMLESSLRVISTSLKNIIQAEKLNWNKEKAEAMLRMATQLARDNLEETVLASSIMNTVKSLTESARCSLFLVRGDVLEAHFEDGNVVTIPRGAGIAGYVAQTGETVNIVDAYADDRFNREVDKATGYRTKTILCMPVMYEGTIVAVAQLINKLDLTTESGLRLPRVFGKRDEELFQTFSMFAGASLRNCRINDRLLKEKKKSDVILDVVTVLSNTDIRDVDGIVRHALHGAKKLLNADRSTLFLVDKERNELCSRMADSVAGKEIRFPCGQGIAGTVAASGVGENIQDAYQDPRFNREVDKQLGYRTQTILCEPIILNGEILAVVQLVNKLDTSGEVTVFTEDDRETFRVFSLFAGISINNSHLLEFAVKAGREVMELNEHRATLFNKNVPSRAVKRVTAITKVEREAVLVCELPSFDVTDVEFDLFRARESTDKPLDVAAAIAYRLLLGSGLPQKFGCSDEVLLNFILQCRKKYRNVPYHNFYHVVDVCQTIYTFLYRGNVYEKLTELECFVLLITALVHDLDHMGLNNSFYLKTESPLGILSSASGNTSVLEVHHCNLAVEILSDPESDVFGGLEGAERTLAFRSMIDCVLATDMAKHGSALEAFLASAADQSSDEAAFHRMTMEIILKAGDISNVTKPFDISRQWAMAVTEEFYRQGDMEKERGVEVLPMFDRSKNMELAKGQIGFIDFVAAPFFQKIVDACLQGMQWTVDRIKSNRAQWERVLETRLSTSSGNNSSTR

For `OCCN(CCO)c1nc(N2CCCCC2)c2nc(N(CCO)CCO)nc(N3CCCCC3)c2n1` [Dipyridamole, dipyridamole], the IC50 (TbPDE2B) was 27 µM, the IC50 (TbPDE2A [1]; [10]) was 5.8 µM and 5.9 µM and the “IC50 for TbPDE2A (μM)” value (TbPDE2A [1]; [10]) was “low micromolar range”. The “total PDE activity” value [2] was “marked, if not complete, reduction”, the IC50 (PDE 6) was 0.38 µM and the IC50 (PDE 8) was 4.5 µM. The IC50 (PDE 10) was 1.1 µM.

In the case of `CSc1ccc(C(=O)c2[nH]c(=O)[nH]c2C)cc1` [Enoximone, enoximone], the IC50 (TbPDE2B) is given as over 100 µM, the “inhibition of recombinant TbPDE2B, in words” value (shortened to “inhibition … in words”) (TbPDE2B) is given as “No IC50 could be obtained” and the IC50 (PDE 3) is given as 1 µM.

With `CC(C)Cn1c(=O)n(C)c(=O)c2[nH]cnc21` [IBMX, 3-Isobutyl-1-methylxanthine] the “sensitivity of the PDE activity peak” value [3] was “sensitive”, the “activity of fractions that contained only PDE8A” value (PDE8A [4]) was “inhibited” and the “immunoprecipitated PDE8A activity from hut78 cells” value (PDE8A [5]; 100 μM IBMX, FIG. 6A) was “inhibited”. For the same molecule, the “increase in immunoprecipitated PDE8A activity after activation” value (PDE8A [5]; CD4+ T cells) was “could be inhibited”, the IC50 (TbPDE2B) was over 1000 µM and the “inhibition … in words” value (TbPDE2B) was “extremely low sensitivity”. For the same molecule, the “effectiveness on TbPDE2A, in words” value (TbPDE2A [1]) was “not effective”, the “effect on TbPDE2A activity in initial screening” value (TbPDE2A [1]; 100 μM inhibitor, 1 μM cAMP, FIG. 26) was “ineffective” and the IC50 (TbPDE2A [1]; [10]) was 545 µM. The “sensitivity of recombinant expressed PDE8A” value (PDE8A [6]) was “resistant”, the IC50 (PDEs (Non-selective)) was 2 to 50 µM and the “IBMX inhibition of undigested PDE8A” value (human PDE8A [7]) was “resistant”. For the same molecule, the “activity of undigested PDE8A” value (human PDE8A [7]; at 1 μM IBMX) was “unchanged” and the activity retained (human PDE8A [8]) was 40%.

With `Nc1nc2c(ncn2[C@@H]2O[C@@H]3COP(=O)(O)O[C@H]3[C@H]2O)c(=O)[nH]1` [cGMP] the “inhibition … in words” value (TbPDE2B) was “not stimulated or inhibited”, the IC50 (TbPDE2B; Substrate concentration 1 μM [3H]-cAMP, read-out: TbPDE2B IC50 (μM) (n = 3)) was over 200 µM and the “cAMP hydrolysis by TbPDE2A in the presence of cGMP” value (TbPDE2A [1]; 100-fold excess of cGMP, full-size and truncated constructs) was “unaffected”. The “effect on activity of TbPDE2C” value (TbPDE2C) was “does not affect the activity” and the IC50 (TbPDE2A [9]) was over 100 µM.
